Results from US20040116330A1, “Preventive/therapeutic method for cancer” (priority 2001, published 2004).

What was measured:
[1] = test system: HER2 high expression human breast cancer cells BT-474; conditions: HER2 score 3+, dose 20 mg/kg/day orally for 14 days
Procedure: Immediately after transplantation and day 7 after the transplantation, estradiol dipropionate (5 mg/kg solution, 50 μL) was intramuscularly administered to the hind leg with the aim of enhancing the survival rate of the tumor. HER2 expression human non-parvicellular lung cancer A549 cells were suspended in Matrigel solution and 5,000,000 cells were subcutaneously transplanted into the chest of female BALB/c nude mouse (6 weeks of age). HER2 expression human kidney cancer ACHN cells (2,000,000 cells) were subcutaneously transplanted into the chest of nude mouse. […]
(§1) An increase in the tumor volume from that before administration to that on the next day of the final administration was compared to that of the control group and an anti-tumor effect was studied. In addition, the tumor volume was calculated from the following equation: […]
(§2) A ratio of the value obtained by subtracting a tumor volume on the day of the administration initiation from the tumor volume on the next day of the completion of the administration in the control group, and the value obtained by subtracting the tumor volume on the day of the administration initiation from the tumor volume on the next day of the completion of the administration was determined as a growth rate (T/C (%)).

HER2 [2] = biological target: T1, HER2 (Homo sapiens, UniProt P04626); assay: in vivo
T1 sequence (P04626 23-1255): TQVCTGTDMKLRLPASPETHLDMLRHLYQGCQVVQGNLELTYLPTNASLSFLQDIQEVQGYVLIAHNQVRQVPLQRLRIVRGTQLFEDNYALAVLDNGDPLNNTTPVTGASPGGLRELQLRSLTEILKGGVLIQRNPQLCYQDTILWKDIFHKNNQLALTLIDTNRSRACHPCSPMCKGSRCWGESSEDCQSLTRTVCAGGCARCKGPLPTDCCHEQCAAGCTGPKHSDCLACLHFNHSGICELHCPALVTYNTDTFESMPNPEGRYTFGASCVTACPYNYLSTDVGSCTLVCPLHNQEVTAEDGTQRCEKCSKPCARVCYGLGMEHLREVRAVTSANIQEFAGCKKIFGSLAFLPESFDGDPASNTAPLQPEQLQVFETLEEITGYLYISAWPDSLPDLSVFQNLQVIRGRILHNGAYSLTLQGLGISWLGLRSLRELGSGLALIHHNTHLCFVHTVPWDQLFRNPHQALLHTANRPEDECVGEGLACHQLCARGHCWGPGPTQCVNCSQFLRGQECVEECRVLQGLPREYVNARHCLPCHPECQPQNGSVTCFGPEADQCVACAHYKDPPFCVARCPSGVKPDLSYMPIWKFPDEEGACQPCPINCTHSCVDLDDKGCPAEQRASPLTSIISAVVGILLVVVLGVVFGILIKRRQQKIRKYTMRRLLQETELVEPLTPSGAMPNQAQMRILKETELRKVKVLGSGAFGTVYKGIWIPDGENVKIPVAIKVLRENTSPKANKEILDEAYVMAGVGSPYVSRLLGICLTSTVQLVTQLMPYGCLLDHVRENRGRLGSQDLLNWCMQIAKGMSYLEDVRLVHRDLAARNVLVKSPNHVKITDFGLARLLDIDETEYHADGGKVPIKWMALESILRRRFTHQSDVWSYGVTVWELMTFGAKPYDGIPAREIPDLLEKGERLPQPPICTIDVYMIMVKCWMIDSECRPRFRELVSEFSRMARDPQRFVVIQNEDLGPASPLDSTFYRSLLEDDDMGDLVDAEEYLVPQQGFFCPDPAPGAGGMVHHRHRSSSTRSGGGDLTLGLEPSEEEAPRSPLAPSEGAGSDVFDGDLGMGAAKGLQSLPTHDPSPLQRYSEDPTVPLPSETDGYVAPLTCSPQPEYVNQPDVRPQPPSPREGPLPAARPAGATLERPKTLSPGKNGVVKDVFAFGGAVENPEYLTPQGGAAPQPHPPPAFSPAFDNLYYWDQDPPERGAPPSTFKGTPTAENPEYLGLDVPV
Procedure: Four hours later, the tumor was sampled and a tumor homogenate was prepared.

Src = Src (Homo sapiens, UniProt P12931); assay: cell-based
Src, sequence (P12931 2-536 limits assumed): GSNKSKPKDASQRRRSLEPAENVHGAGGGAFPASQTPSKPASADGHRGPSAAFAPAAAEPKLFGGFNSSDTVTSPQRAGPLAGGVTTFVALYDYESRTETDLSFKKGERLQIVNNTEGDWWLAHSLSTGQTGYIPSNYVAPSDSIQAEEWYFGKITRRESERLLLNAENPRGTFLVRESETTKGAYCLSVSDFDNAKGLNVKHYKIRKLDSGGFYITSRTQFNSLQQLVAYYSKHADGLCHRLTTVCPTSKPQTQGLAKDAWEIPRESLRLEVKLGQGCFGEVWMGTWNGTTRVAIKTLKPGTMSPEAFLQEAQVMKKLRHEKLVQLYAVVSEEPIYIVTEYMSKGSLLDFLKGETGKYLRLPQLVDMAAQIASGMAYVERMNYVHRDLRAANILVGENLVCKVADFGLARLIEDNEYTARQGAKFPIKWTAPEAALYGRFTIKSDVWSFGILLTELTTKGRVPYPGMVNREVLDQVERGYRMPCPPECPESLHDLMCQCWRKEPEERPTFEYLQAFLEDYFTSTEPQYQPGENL
Procedure: The medium was changed to a serum-free medium and the cells were further incubated for one day. […] The culture medium was removed 5 min later and SDS sample buffer was added to give a cell lysate (200 μL).

[3] = test system: HER2 non-expression cells (Ma-1); conditions: 3 days, cell count
Procedure: (§3) 1) Cell growth inhibitory action; Each cell line was sown in a 24-well multi-well plate (5×10^4 cells/well) and cultured overnight in a carbon dioxide gas incubator (5% CO2, 37° C. ).

[4] = test system: HER2/EGF-R co-expression cells (A549); conditions: 3 days, cell count
Procedure: as §3

[5] = test system: HER2 expression cells (Ma-46); conditions: 3 days, cell count
Procedure: as §3

[6] = test system: HER2 high expression human breast cancer cells BT-474; conditions: BT-474, 1 μmol/L, 5 days
Procedure: After the culture, the culture medium was removed and a cell suspension was prepared by a trypsin treatment and the cells were fixed with 70% ethanol. The DNA of the cells was stained with propidium iodide and the DNA amount was measured by a flow cytometer. The cells with a decreased amount of DNA are apoptotic (cell death) cells.

[7] = test system: HER2 high expression human breast cancer cell BT-474; assay: Anti-tumor effect, combined use, BT-474 cancer-bearing nude mice; type: in vivo; conditions: BT-474 nude mice, 5 cases out of 5, same regimens as T/C
Procedure: An increase in the tumor volume from that before administration to that on the next day of the final administration was compared to that of the control group and anti-tumor effect was studied. In addition, the tumor volume was calculated from the following equation:
Formula: Tumor volume=longer diameter×shorter diameter×shorter diameter×(½)
The ratio of the value obtained by subtracting the tumor volume on the day of administration initiation from the tumor volume on the next day of the completion of the administration in the control group, and the value obtained by subtracting the tumor volume on the day of administration initiation from the tumor volume on the next day of the completion of the administration was determined as a growth rate (T/C (%)).

MDA-MB-231 [8] = conditions: breast, HER2 score 0, dose 20 mg/kg/day orally for 14 days
Procedure: as §1, §2

HER2 [9] = biological target: T1, HER2; assay: cell-based
SW480 = assay: cells; conditions: Homo sapiens, SW480, read-out: Compound B4 IC50 (μmol/L), SW480
Procedure: (§4) 1) Cell growth inhibitory action; Each cell line was sown in a 24-well multi-well plate (5×10^4 to 2×10^5 cells/well) and cultured overnight in a carbon dioxide gas incubator (5% CO2, 37° C. ).

MIA-PaCa-2 = assay: cells; conditions: Homo sapiens, MIA PaCa-2, read-out: Compound B4 IC50 (μmol/L), MIA-PaCa-2
Procedure: as §4

NIH: OV-CAR-3 = assay: cells; conditions: Homo sapiens, OVCAR-3, read-out: Compound B4 IC50 (μmol/L), NIH: OV-CAR-3
Procedure: as §4

ES-2 = assay: cells; conditions: Homo sapiens, ES-2, read-out: Compound B4 IC50 (μmol/L), ES-2
Procedure: as §4

PA-1 = assay: cells; conditions: Homo sapiens, PA-1, read-out: Compound B4 IC50 (μmol/L), PA-1
Procedure: as §4

G401 = assay: cells; conditions: Homo sapiens, G-401, read-out: Compound B4 IC50 (μmol/L), G401
Procedure: as §4

A549 = assay: cells; conditions: Homo sapiens, A549, read-out: Compound B4 IC50 (μmol/L), A549
Procedure: as §4

HCT-116 = assay: cells; conditions: Homo sapiens, HCT-116, read-out: Compound B4 IC50 (μmol/L), HCT-116
Procedure: as §4

BxPC-3 = assay: cells; conditions: Homo sapiens, BXPC-3, read-out: Compound B4 IC50 (μmol/L), BxPC-3
Procedure: as §4

BT-474 = assay: cells; conditions: Homo sapiens, BT-474, read-out: Compound B4 IC50 (μmol/L), BT-474
Procedure: as §4

MDA-MB-231 [10] = assay: cells; conditions: Homo sapiens, MDA-MB-231, read-out: Compound B4 IC50 (μmol/L), MDA-MB-231
Procedure: as §4

786-O = assay: cells; conditions: Homo sapiens, 786-0, read-out: Compound B4 IC50 (μmol/L), 786-O
Procedure: as §4

ACHN = assay: cells; conditions: Homo sapiens, read-out: Compound B4 IC50 (μmol/L), ACHN
Procedure: as §4

Ma-1 = assay: cells; conditions: read-out: Compound B4 IC50 (μmol/L), Ma-1
Procedure: as §4

FC(F)(F)c1ccc(/C=C/c2nc(COc3ccc(CCCCn4ccnn4)cc3)co2)cc1 [Compound B4, 1-(4-{4-[(2-{(E)-2-[4-(trifluoromethyl)phenyl]ethenyl}-1,3-oxazol-4-yl)methoxy]phenyl}butyl)-1H-1,2,3-triazole]
T/C (%), BT-474 [1]: −18% | inhibition at 20 mg/kg (HER2 [2]; BT-474, mouse, po, read-out: intra-tumor HER2 phosphorylation, % inhibition): 87% | intra-tumor HER2 phosphorylation (per tumor weight), % of the control group (HER2 [2]; BT-474 nude mice, 20 mg/kg/day orally 14 days then 10 mg/kg, tumor sampled four hours later): 13% | IC50 (Src): > 25000 nM | cell growth inhibitory action on Ma-1 [3]: did not show a cell growth inhibitory action | cell growth inhibitory action on A549 [4]: strong cell growth inhibitory action | cell growth inhibitory action on Ma-46 [5]: strong cell growth inhibitory action | cell death induction [6]: induced cell death | reduction of tumor volume [7]: 13-30% | T/C (%), MDA-MB-231 (MDA-MB-231 [8]): 87% | IC50 (HER2 [9]): 4 nM | IC50 (SW480): > 25 µmol/L | IC50 (MIA-PaCa-2): 0.02 µmol/L | IC50 (NIH: OV-CAR-3): 0.06 µmol/L | IC50 (ES-2): 12 µmol/L | IC50 (PA-1): < 0.05 µmol/L | IC50 (G401): < 0.05 µmol/L | IC50 (A549): 0.008 µmol/L | IC50 (HCT-116): < 0.05 µmol/L | IC50 (BxPC-3): > 25 µmol/L | IC50 (BT-474): 0.05 µmol/L | IC50 (MDA-MB-231 [10]): > 25 µmol/L | IC50 (786-O): > 25 µmol/L | IC50 (ACHN): 0.14 µmol/L | IC50 (Ma-1): > 25 µmol/L
